# Data from patent US20250304567A1, “PYRROLIDIONE DERIVATIVES AS INHIBITORS OF NF KAPPA B INDUCING KINASE” (priority 2022, published 2025).
# Read-outs that look alike come from different tables or passages of the source.
# Columns and labels:
# [1] = molecular target: Recombinant Human NF-kappaB-Inducing Kinase (NIK/MAP3K14) (Homo sapiens, UniProt Q99558); assay: Inhibition of auto-phosphorylation of recombinant human NIK/MAP3K14 activity (AlphaScreen); format: biochemical; details: 5 μM ATP, 1 nM NIK, average if tested more than once
# How it was run: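 GST-tagged NIK (1 nM) auto-phosphorylation with 5 μM ATP, 2 h at 25 °C, pH 7.5 Tris buffer, 0.7% DMSO; stopped with anti-phospho-IKK Ser176/180 antibody and read by AlphaScreen. Signal normalized to full-activity and no-enzyme/no-ATP controls; IC50 from sigmoidal fit of % inhibition vs log concentration.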
# [2] = system: p-IKKa levels in L363 (NIK translocated multiple myeloma) cells; assay: Effect of compounds on p-IKKa levels in L363 (NIK translocated multiple myeloma) cells (AlphaLISA SureFire Ultra p-IKKa Ser176/180); format: cell-based, human; details: average if tested more than once, read-out: Assay 2 IC50
# How it was run: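 L363 multiple myeloma cells, BAFF-stimulated overnight (250 ng/ml), then 6 h at 37 °C with compound (11-point 1:3 series, 0.3% DMSO) plus BAFF and 10 μM MG132. p-IKKa Ser176/180 read by AlphaLISA SureFire Ultra; IC50 from sigmoidal fit normalised to stimulated and unstimulated controls.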
# [3] = Homo sapiens, L-363, p-IKKa levels in L363 cells
# Sequence of Recombinant Human NF-kappaB-Inducing Kinase (NIK/MAP3K14) (Q99558 whole entry): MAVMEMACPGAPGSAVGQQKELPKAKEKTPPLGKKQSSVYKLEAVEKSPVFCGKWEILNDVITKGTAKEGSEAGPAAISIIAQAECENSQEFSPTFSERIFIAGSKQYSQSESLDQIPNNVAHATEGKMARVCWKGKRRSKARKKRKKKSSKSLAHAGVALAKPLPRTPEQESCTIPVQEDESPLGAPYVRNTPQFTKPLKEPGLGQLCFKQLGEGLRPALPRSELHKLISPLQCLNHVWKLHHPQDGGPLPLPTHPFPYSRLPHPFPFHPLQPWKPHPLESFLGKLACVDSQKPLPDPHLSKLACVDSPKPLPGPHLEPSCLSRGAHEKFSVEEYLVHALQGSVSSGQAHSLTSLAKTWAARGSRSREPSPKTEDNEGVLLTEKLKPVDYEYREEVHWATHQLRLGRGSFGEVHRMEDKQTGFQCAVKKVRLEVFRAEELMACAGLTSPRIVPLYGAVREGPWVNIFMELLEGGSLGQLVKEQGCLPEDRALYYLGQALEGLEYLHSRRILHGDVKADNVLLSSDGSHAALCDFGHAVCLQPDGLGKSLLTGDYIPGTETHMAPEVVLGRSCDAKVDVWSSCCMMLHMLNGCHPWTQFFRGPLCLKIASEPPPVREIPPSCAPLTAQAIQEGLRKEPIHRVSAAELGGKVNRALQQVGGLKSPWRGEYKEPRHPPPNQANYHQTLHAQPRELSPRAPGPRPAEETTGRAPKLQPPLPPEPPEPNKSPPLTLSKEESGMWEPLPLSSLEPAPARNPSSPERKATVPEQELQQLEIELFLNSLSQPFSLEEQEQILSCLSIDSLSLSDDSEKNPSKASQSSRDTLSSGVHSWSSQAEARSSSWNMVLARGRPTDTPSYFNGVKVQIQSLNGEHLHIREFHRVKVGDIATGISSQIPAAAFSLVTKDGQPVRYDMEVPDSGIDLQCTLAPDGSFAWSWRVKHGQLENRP
SMILES,IC50 [1] [nM],IC50 ([2]; p-IKKa levels in L363 cells) [nM],"IC50 [2, 3] [nM]"
"CN1CCC(O)(c2cc(C#N)cc(-c3csc(-c4ccnc(Nc5ccn(C)n5)n4)n3)c2)C1=O (single isomer, unassigned) [Example 58, 3-(3-hydroxy-1-methyl-2-oxopyrrolidin-3-yl)-5-(2-(2-((1-methyl-1H-pyrazol-3-yl)amino)pyrimidin-4-yl)thiazol-4-yl)benzonitrile]",> 501,> 501,
CN1CC[C@@](O)(c2cccc(-c3nc(-c4ccnc(NCCNS(C)(=O)=O)n4)cs3)c2)C1=O [Example 237],< 100,,> 501
"CN1CC[C@@](O)(c2cccc(-c3nc(-c4ccnc(Nc5nccc(C(F)(F)F)n5)n4)cs3)c2)C1=O [Example 165, (R)-3-Hydroxy-1-methyl-3-(3-(4-(2-((4-(trifluoromethyl)pyrimidin-2-yl)amino)pyrimidin-4-yl)thiazol-2-yl)phenyl)pyrrolidin-2-one]",100 to 500,,> 501
CN1CC[C@@](O)(c2cccc(-c3nc(-c4ccnc(NCCc5ccccn5)n4)cs3)c2)C1=O [Example 189],100 to 500,,> 501
CC(=O)N1CC[C@@H](Nc2nccc(-c3csc(-c4cccc([C@]5(O)CCN(C)C5=O)c4)n3)n2)C1 [Example 212],< 100,,> 501
"CN1CC[C@@](O)(c2cccc(-c3nc(-c4ccnc(Nc5ccon5)n4)cs3)c2)C1=O [Example 266, (R)-3-Hydroxy-3-(3-(4-(2-(isoxazol-3-ylamino)pyrimidin-4-yl)thiazol-2-yl)phenyl)-1-methylpyrrolidin-2-one]",< 100,,100 to 500
"CN1CC[C@@](O)(c2cccc(-c3nc(-c4ccnc(Nc5ccn(C)n5)n4)co3)c2)C1=O [Example 1, (R)-3-hydroxy-1-methyl-3-(3-(4-(2-((1-methyl-1H-pyrazol-3-yl)amino)pyrimidin-4-yl)oxazol-2-yl)phenyl)pyrrolidin-2-one]",< 100,,100 to 500
CN1CC[C@@](O)(c2cccc(-c3nc(-c4ccnc(NCCCN5CCOCC5)n4)cs3)c2)C1=O [Example 246],> 501,,> 501
CO[C@H]1C[C@H](Nc2nccc(-c3csc(-c4cccc([C@]5(O)CCN(C)C5=O)c4)n3)n2)C1 [Example 215],< 100,,> 501
CN1CCO[C@@H](CNc2nccc(-c3csc(-c4cccc([C@]5(O)CCN(C)C5=O)c4)n3)n2)C1 [Example 213],> 501,,> 501
"C[C@@H](Nc1nccc(-c2nc(-c3cccc([C@]4(O)CCN(C)C4=O)c3)cs2)n1)c1ccnn1C (single isomer, unassigned) [Example 127]",< 100,,100 to 500
"CN1CC[C@@](O)(c2cccc(-c3nc(-c4ccnc(Nc5ccn(CC(F)(F)F)n5)n4)cs3)c2)C1=O [Example 75, (R)-3-hydroxy-1-methyl-3-(3-(4-(2-((1-(2,2,2-trifluoroethyl)-1H-pyrazol-3-yl)amino)pyrimidin-4-yl)thiazol-2-yl)phenyl)pyrrolidin-2-one]",< 100,,100 to 500
CN1CC[C@@](O)(c2cccc(-c3nc(-c4ccnc(NCC5CCO5)n4)cs3)c2)C1=O (stereo partly drawn) [Example 190],100 to 500,,> 501
"Cc1cc(Nc2nccc(-c3nc(-c4cccc([C@]5(O)CCN(C)C5=O)c4)cs3)n2)n(C)n1 [Example 81, (R)-3-(3-(2-(2-((1,3-dimethyl-1H-pyrazol-5-yl)amino)pyrimidin-4-yl)thiazol-4-yl)phenyl)-3-hydroxy-1-methylpyrrolidin-2-one]",100 to 500,,> 501
"CN1CC[C@@](O)(c2cccc(-c3nc(-c4ccnc(Nc5cc6c(nn5)CCC6)n4)cs3)c2)C1=O [Example 71, (R)-3-(3-(4-(2-((6,7-dihydro-5H-cyclopenta[c]pyridazin-3-yl)amino)pyrimidin-4-yl)thiazol-2-yl)phenyl)-3-hydroxy-1-methylpyrrolidin-2-one]",< 100,,> 501
CN1CC[C@@](O)(c2cccc(-c3nc(-c4ccnc(NC[C@H]5CCOC5)n4)cs3)c2)C1=O [Example 192],100 to 500,,> 501
CN1CC[C@@](O)(c2cccc(-c3nc(-c4ccnc(NCCc5cn(C)cn5)n4)cs3)c2)C1=O [Example 211],> 501,,> 501

SMILES,IC50 [1] [nM],IC50 ([2]; p-IKKa levels in L363 cells) [nM],"IC50 [2, 3] [nM]"
"CN1CC[C@@](O)(c2cncc(-c3ccn(-c4ccnc(Nc5cnn6cccnc56)n4)n3)c2)C1=O (single isomer, unassigned) [Example 148, (R)-3-hydroxy-1-methyl-3-(5-(1-(2-(pyrazolo[1,5-a]pyrimidin-3-ylamino)pyrimidin-4-yl)-1H-pyrazol-3-yl)pyridin-3-yl)pyrrolidin-2-one or (S)-3-hydroxy-1-methyl-3-(5-(1-(2-(pyrazolo[1,5-a]pyrimidin-3-ylamino)pyrimidin-4-yl)-1H-pyrazol-3-yl)pyridin-3-yl)pyrrolidin-2-one]",< 100,,> 501
CN1CC[C@@](O)(c2cccc(-c3nc(-c4ccnc(N[C@H]5CC[C@@H](C#N)CC5)n4)cs3)c2)C1=O [Example 243],< 100,,> 501
"CN1CC[C@@](O)(c2cccc(-c3nc(-c4ccnc(Nc5cc(C(F)(F)F)nn5C)n4)cs3)c2)C1=O [Example 281, (R)-3-Hydroxy-1-methyl-3-(3-(4-(2-((1-methyl-3-(trifluoromethyl)-1H-pyrazol-5-yl)amino)pyrimidin-4-yl)thiazol-2-yl)phenyl)pyrrolidin-2-one]",< 100,,> 501
CN1CC[C@@](O)(c2cccc(-c3nc(-c4ccnc(NCCS(C)(=O)=O)n4)cs3)c2)C1=O [Example 173],100 to 500,,> 501
Cc1nnc(Nc2nccc(-c3csc(-c4cccc([C@]5(O)CCN(C)C5=O)c4)n3)n2)o1 [Example 175],100 to 500,,> 501
"CN1CCn2nc(Nc3nccc(-c4csc(-c5cccc([C@]6(O)CCN(C)C6=O)c5)n4)n3)cc2C1=O [Example 53, (R)-2-((4-(2-(3-(3-Hydroxy-1-methyl-2-oxopyrrolidin-3-yl)phenyl)thiazol-4-yl)pyrimidin-2-yl)amino)-5-methyl-6,7-dihydropyrazolo[1,5-a]pyrazin-4(5H)-one]",< 100,,100 to 500
"Cc1nccc(Nc2nccc(-c3csc(-c4cccc([C@]5(O)CCN(C)C5=O)c4)n3)n2)n1 [Example 159, (R)-3-Hydroxy-1-methyl-3-(3-(4-(2-((2-methylpyrimidin-4-yl)amino)pyrimidin-4-yl)thiazol-2-yl)phenyl)pyrrolidin-2-one]",< 100,,> 501
CN1CC[C@@](O)(c2cccc(-c3nc(-c4ccnc(N[C@@H]5CCC[C@H]5O)n4)cs3)c2)C1=O [Example 216],100 to 500,,> 501
"CN1CC[C@@](O)(c2cccc(-c3nc(-c4ccnc(Nc5cc(Cl)n(C)n5)n4)cs3)c2)C1=O [Example 261, (R)-3-(3-(4-(2-((5-Chloro-1-methyl-1H-pyrazol-3-yl)amino)pyrimidin-4-yl)thiazol-2-yl)phenyl)-3-hydroxy-1-methylpyrrolidin-2-one]",< 100,,100 to 500
"COC[C@@H](Nc1nccc(-c2nc(-c3cccc([C@]4(O)CCN(C)C4=O)c3)cs2)n1)c1ccnn1C (single isomer, unassigned) [Example 130]",< 100,,100 to 500
"CC(Nc1nccc(-c2nc(-c3cccc(C4(O)CCN(C)C4=O)c3)cs2)n1)c1ccn(C)n1 (single isomer, unassigned) [Example 50]",100 to 500,> 501,
"CN1CC[C@@](O)(c2ccnc(-c3ccn(-c4ccnc(Nc5cnn6cccnc56)n4)n3)c2)C1=O (single isomer, unassigned) [Example 149, (R)-3-hydroxy-1-methyl-3-(2-(1-(2-(pyrazolo[1,5-a]pyrimidin-3-ylamino)pyrimidin-4-yl)-1H-pyrazol-3-yl)pyridin-4-yl)pyrrolidin-2-one or (S)-3-hydroxy-1-methyl-3-(2-(1-(2-(pyrazolo[1,5-a]pyrimidin-3-ylamino)pyrimidin-4-yl)-1H-pyrazol-3-yl)pyridin-4-yl)pyrrolidin-2-one]",< 100,,> 501
"CN1CC[C@@](O)(c2cccc(-c3nc(-c4ccnc(N[C@H]5CCCc6cn[nH]c65)n4)cs3)c2)C1=O (single isomer, unassigned) [Example 136]",100 to 500,,> 501
"CCOc1cn(C)nc1Nc1nccc(-c2csc(-c3cccc([C@]4(O)CCN(C)C4=O)c3)n2)n1 [Example 78, (R)-3-(3-(4-(2-((4-ethoxy-1-methyl-1H-pyrazol-3-yl)amino)pyrimidin-4-yl)thiazol-2-yl)phenyl)-3-hydroxy-1-methylpyrrolidin-2-one]",< 100,,< 100
Cc1nc(Nc2nccc(-c3csc(-c4cccc([C@]5(O)CCN(C)C5=O)c4)n3)n2)sc1C [Example 233],< 100,,100 to 500
"CN1CC[C@@](O)(c2cccc(-c3ccn(-c4ccnc(Nc5cnn(C)c5)n4)n3)c2)C1=O [Example 90, (R)-3-hydroxy-1-methyl-3-(3-(1-(2-((1-methyl-1H-pyrazol-4-yl)amino)pyrimidin-4-yl)-1H-pyrazol-3-yl)phenyl)pyrrolidin-2-one]",< 100,,100 to 500
